In ChEMBL document CHEMBL4152384, “Pyrtriazoles, a Novel Class of Store-Operated Calcium Entry Modulators: Discovery, Biological Profiling, and in Vivo Proof-of-Concept Efficacy in Acute Pancreatitis” (J Med Chem, 2018):

molecular target: Stromal interaction molecule 1 & 2/Calcium release-activated calcium channel protein 1 (Mus musculus) (UniProt Q8BWG9+P70302+P83093); assay: (§1) Modulation of STIM1/STIM2/Orai1 in mouse BV2 cells assessed as induction of store-operated calcium entry by measuring residual activity at 10 uM preincubated for 30 mins followed by tBhQ-mediated Ca2+ depletion and Ca2+ re-addition to extracellular solution measured for 600 secs by Fluo-4 AM-based fluorometric assay relative to control; type: cell-based

Going from `CCOC(=O)c1cnn(-c2ccc(-n3cc(-c4ccc(N)cc4)nn3)cc2)c1C(F)(F)F` to `CCOC(=O)c1cnn(-c2ccc(-c3cn(-c4ccc(N)cc4)nn3)cc2)c1C(F)(F)F`, the Activity rises from 91.7% to 93.2%.

First: FC(F)(F)c1cc(C(F)(F)F)n(-c2ccc(-c3cn(-c4ccc(Oc5ccccc5)cc4)nn3)cc2)n1
Second: FC(F)(F)c1cc(C(F)(F)F)n(-c2ccc(-n3cc(-c4ccc(Oc5ccccc5)cc4)nn3)cc2)n1
The Activity of the first is higher: 90.2% for the first, 73.5% for the second.

Compared with `CCOC(=O)c1cnn(-c2ccc(-c3cn(-c4cccc(OC)c4)nn3)cc2)c1C(F)(F)F`, `CCOC(=O)c1cnn(-c2ccc(-n3cc(-c4cccc(OC)c4)nn3)cc2)c1C(F)(F)F` is lower in Activity: 117% for the first, 105% for the second.

First: CCOC(=O)c1cnn(-c2ccc(-n3cc(-c4cccc(NC(C)=O)c4)nn3)cc2)c1C(F)(F)F
Second: CCOC(=O)c1cnn(-c2ccc(-c3cn(-c4cccc(NC(C)=O)c4)nn3)cc2)c1C(F)(F)F
The Activity of the first is lower: 75.3% for the first, 117% for the second.

Compared with `Fc1cnccc1-c1cn(-c2ccc(-n3nc(C(F)(F)F)cc3C(F)(F)F)cc2)nn1`, `Fc1cnccc1-n1cc(-c2ccc(-n3nc(C(F)(F)F)cc3C(F)(F)F)cc2)nn1` is higher in Activity: 90.2% for the first, 106% for the second.

Going from `CC(=O)Nc1cccc(-c2cn(-c3ccc(-n4nc(C(F)(F)F)cc4C(F)(F)F)cc3)nn2)c1` to `CC(=O)Nc1cccc(-n2cc(-c3ccc(-n4nc(C(F)(F)F)cc4C(F)(F)F)cc3)nn2)c1`, the Activity rises from 98.1% to 101%.

Compared with `COc1ccc(-c2cn(-c3ccc(-n4nc(C(F)(F)F)cc4C(F)(F)F)cc3)nn2)cc1OC`, `COc1ccc(-n2cc(-c3ccc(-n4nc(C(F)(F)F)cc4C(F)(F)F)cc3)nn2)cc1OC` is lower in Activity: 109% for the first, 94.3% for the second.

First: FC(F)(F)c1cc(C(F)(F)F)n(-c2ccc(-n3cc(-c4ccc(Cl)cc4)nn3)cc2)n1
Second: FC(F)(F)c1cc(C(F)(F)F)n(-c2ccc(-c3cn(-c4ccc(Cl)cc4)nn3)cc2)n1
The Activity of the first is lower: 106% for the first, 116% for the second.

Going from `O=C(O)CCCc1cn(-c2ccc(-n3nc(C(F)(F)F)cc3C(F)(F)F)cc2)nn1` to `O=C(O)CCCn1cc(-c2ccc(-n3nc(C(F)(F)F)cc3C(F)(F)F)cc2)nn1`, the Activity rises from 80.1% to 81.7%.

First: COc1ccc(-c2cn(-c3ccc(-n4nc(C(F)(F)F)cc4C(F)(F)F)cc3)nn2)cc1
Second: COc1ccc(-n2cc(-c3ccc(-n4nc(C(F)(F)F)cc4C(F)(F)F)cc3)nn2)cc1
The Activity of the first is higher: 99.6% for the first, 78.7% for the second.

Going from `FC(F)(F)c1cc(C(F)(F)F)n(-c2ccc(-c3cn(-c4ccccn4)nn3)cc2)n1` to `FC(F)(F)c1cc(C(F)(F)F)n(-c2ccc(-c3cn(-c4cccnc4)nn3)cc2)n1`, the Activity falls from 88.8% to 77%.

Compared with `CCOC(=O)c1cnn(-c2ccc(-c3cn(-c4ccc(NC(C)=O)cc4)nn3)cc2)c1C(F)(F)F`, `CCOC(=O)c1cnn(-c2ccc(-n3cc(-c4ccc(NC(C)=O)cc4)nn3)cc2)c1C(F)(F)F` is lower in Activity: 108% for the first, 106% for the second.

First: CC(=O)Nc1ccccc1-c1cn(-c2ccc(-n3nc(C(F)(F)F)cc3C(F)(F)F)cc2)nn1
Second: CC(=O)Nc1ccc(-n2cc(-c3ccc(-n4nc(C(F)(F)F)cc4C(F)(F)F)cc3)nn2)cc1
The Activity of the first is lower: 93.2% for the first, 98.8% for the second.

Going from `CCOC(=O)c1cnn(-c2ccc(-n3cc(-c4ccccc4NC(C)=O)nn3)cc2)c1C(F)(F)F` to `CCOC(=O)c1cnn(-c2ccc(-n3cc(-c4ccccc4)nn3)cc2)c1C(F)(F)F`, the Activity rises from 72% to 86.1%.

Going from `CCOC(=O)c1cnn(-c2ccc(-c3cn(-c4cccnc4)nn3)cc2)c1C(F)(F)F` to `CCOC(=O)c1cnn(-c2ccc(-n3cc(-c4cccnc4)nn3)cc2)c1C(F)(F)F`, the Activity rises from 62.6% to 91.6%.

Compared with `CCOC(=O)c1cnn(-c2ccc(-n3cc(-c4cc(OC)cc(OC)c4)nn3)cc2)c1C(F)(F)F`, `CCOC(=O)c1cnn(-c2ccc(-c3cn(-c4cc(OC)cc(OC)c4)nn3)cc2)c1C(F)(F)F` is higher in Activity: 99.4% for the first, 113% for the second.

Going from `CCOC(=O)c1cnn(-c2ccc(-c3cn(-c4ccc(OC)cc4)nn3)cc2)c1C(F)(F)F` to `CCOC(=O)c1cnn(-c2ccc(-n3cc(-c4ccc(OC)cc4)nn3)cc2)c1C(F)(F)F`, the Activity rises from 83.1% to 95.6%.

First: CCOC(=O)c1cnn(-c2ccc(-n3cc(-c4ccncc4F)nn3)cc2)c1C(F)(F)F
Second: CCOC(=O)c1cnn(-c2ccc(-n3cc(-c4ccncc4)nn3)cc2)c1C(F)(F)F
The Activity of the first is higher: 107% for the first, 68.1% for the second.

Going from `FC(F)(F)c1cc(C(F)(F)F)n(-c2ccc(-n3cc(-c4ccccc4)nn3)cc2)n1` to `FC(F)(F)c1cc(C(F)(F)F)n(-c2ccc(-c3cn(-c4ccccc4)nn3)cc2)n1`, the Activity rises from 99.2% to 99.7%.

First: Oc1cccc(-c2cn(-c3ccc(-n4nc(C(F)(F)F)cc4C(F)(F)F)cc3)nn2)c1
Second: Nc1cccc(-c2cn(-c3ccc(-n4nc(C(F)(F)F)cc4C(F)(F)F)cc3)nn2)c1
The Activity of the first is lower: 95.9% for the first, 103% for the second.

Going from `CCOC(=O)c1cnn(-c2ccc(-c3cn(-c4ccccc4)nn3)cc2)c1C(F)(F)F` to `CCOC(=O)c1cnn(-c2ccc(-c3cn(-c4cccc(O)c4)nn3)cc2)c1C(F)(F)F`, the Activity rises from 97.5% to 106%.

Compared with `CCOC(=O)c1cnn(-c2ccc(-n3cc(-c4ccc(Oc5ccccc5)cc4)nn3)cc2)c1C(F)(F)F`, `CCOC(=O)c1cnn(-c2ccc(-c3cn(-c4ccc(Oc5ccccc5)cc4)nn3)cc2)c1C(F)(F)F` is higher in Activity: 83.8% for the first, 101% for the second.

Going from `COc1cc(OC)cc(-n2cc(-c3ccc(-n4nc(C(F)(F)F)cc4C(F)(F)F)cc3)nn2)c1` to `COc1cc(OC)cc(-c2cn(-c3ccc(-n4nc(C(F)(F)F)cc4C(F)(F)F)cc3)nn2)c1`, the Activity falls from 93.7% to 75.2%.

First: CCOC(=O)c1cnn(-c2ccc(-c3cn(-c4ccccn4)nn3)cc2)c1C(F)(F)F
Second: CCOC(=O)c1cnn(-c2ccc(-n3cc(-c4ccccn4)nn3)cc2)c1C(F)(F)F
The Activity of the first is lower: 77% for the first, 81% for the second.

Compared with `COc1cccc(-c2cn(-c3ccc(-n4nc(C(F)(F)F)cc4C(F)(F)F)cc3)nn2)c1`, `COc1cccc(-n2cc(-c3ccc(-n4nc(C(F)(F)F)cc4C(F)(F)F)cc3)nn2)c1` is higher in Activity: 105% for the first, 113% for the second.

First: CC(=O)Nc1ccc(-c2cn(-c3ccc(-n4nc(C(F)(F)F)cc4C(F)(F)F)cc3)nn2)cc1
Second: Nc1ccc(-n2cc(-c3ccc(-n4nc(C(F)(F)F)cc4C(F)(F)F)cc3)nn2)cc1
The Activity of the first is higher: 98.5% for the first, 90.2% for the second.

Going from `CCOC(=O)c1cnn(-c2ccc(-c3cn(-c4ccncc4)nn3)cc2)c1C(F)(F)F` to `CCOC(=O)c1cnn(-c2ccc(-n3cc(-c4ccc(Cl)cc4)nn3)cc2)c1C(F)(F)F`, the Activity rises from 79.8% to 88.6%.

Going from `Nc1cccc(-n2cc(-c3ccc(-n4nc(C(F)(F)F)cc4C(F)(F)F)cc3)nn2)c1` to `Oc1cccc(-n2cc(-c3ccc(-n4nc(C(F)(F)F)cc4C(F)(F)F)cc3)nn2)c1`, the Activity rises from 85.6% to 105%.

First: CCOC(=O)c1cnn(-c2ccc(-c3cn(-c4ccc(OC)c(OC)c4)nn3)cc2)c1C(F)(F)F
Second: CCOC(=O)c1cnn(-c2ccc(-n3cc(-c4ccc(OC)c(OC)c4)nn3)cc2)c1C(F)(F)F
The Activity of the first is higher: 113% for the first, 82.8% for the second.

First: CCOC(=O)c1cnn(-c2ccc(-n3cc(-c4cccc(O)c4)nn3)cc2)c1C(F)(F)F
Second: CCOC(=O)c1cnn(-c2ccc(-n3cc(CCCC(=O)O)nn3)cc2)c1C(F)(F)F
The Activity of the first is higher: 96.5% for the first, 72.2% for the second.

Compared with `O=C(O)c1cccc(-n2cc(-c3ccc(-n4nc(C(F)(F)F)cc4C(F)(F)F)cc3)nn2)c1`, `Nc1ccc(-c2cn(-c3ccc(-n4nc(C(F)(F)F)cc4C(F)(F)F)cc3)nn2)cc1` is higher in Activity: 80.2% for the first, 98.1% for the second.

First: FC(F)(F)c1cc(C(F)(F)F)n(-c2ccc(-n3cc(-c4cccnc4)nn3)cc2)n1
Second: FC(F)(F)c1cc(C(F)(F)F)n(-c2ccc(-n3cc(-c4ccncc4)nn3)cc2)n1
The Activity of the first is lower: 87.8% for the first, 94.7% for the second.

Compared with `FC(F)(F)c1cc(C(F)(F)F)n(-c2ccc(-n3cc(-c4ccccn4)nn3)cc2)n1`, `FC(F)(F)c1cc(C(F)(F)F)n(-c2ccc(-c3cn(-c4ccncc4)nn3)cc2)n1` is lower in Activity: 114% for the first, 84% for the second.

Compound `COc1cc(-c2cn(-c3ccc(-n4nc(C(F)(F)F)cc4C(F)(F)F)cc3)nn2)ccc1O` has an Activity of 80.5%.

molecular target: Short transient receptor potential channel 1 & 3/Stromal interaction molecule 1/Calcium release-activated calcium channel protein 1 (Homo sapiens) (UniProt Q96D31+Q13507+Q13586+P48995); assay: as §1, with “TRPC1/TRPC3/STIM1/Orai1” for “STIM1/STIM2/Orai1”, “HEK” for “mouse BV2”; type: cell-based
Sequence (P48995 whole entry partner): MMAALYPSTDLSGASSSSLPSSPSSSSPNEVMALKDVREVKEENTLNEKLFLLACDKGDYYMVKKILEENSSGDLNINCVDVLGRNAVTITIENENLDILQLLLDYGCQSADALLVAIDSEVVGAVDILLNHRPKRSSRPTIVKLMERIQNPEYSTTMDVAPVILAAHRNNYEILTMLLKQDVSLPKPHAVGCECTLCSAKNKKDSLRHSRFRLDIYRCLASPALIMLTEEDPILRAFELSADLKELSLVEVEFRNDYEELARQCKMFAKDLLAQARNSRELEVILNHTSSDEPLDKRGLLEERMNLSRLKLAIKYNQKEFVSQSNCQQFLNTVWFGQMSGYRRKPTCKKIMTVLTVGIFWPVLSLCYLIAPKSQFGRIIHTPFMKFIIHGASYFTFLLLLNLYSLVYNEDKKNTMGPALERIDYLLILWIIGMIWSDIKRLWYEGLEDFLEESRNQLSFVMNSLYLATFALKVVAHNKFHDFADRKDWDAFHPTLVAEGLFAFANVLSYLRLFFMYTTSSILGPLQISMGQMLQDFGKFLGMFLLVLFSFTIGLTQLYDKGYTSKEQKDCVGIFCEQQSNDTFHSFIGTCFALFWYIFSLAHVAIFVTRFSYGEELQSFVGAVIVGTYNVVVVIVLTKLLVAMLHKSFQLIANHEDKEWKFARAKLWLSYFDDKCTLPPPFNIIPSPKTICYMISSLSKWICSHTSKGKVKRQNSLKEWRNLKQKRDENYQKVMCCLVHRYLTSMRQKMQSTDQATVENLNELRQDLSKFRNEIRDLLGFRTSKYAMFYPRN
Sequence (Q13507 whole entry partner): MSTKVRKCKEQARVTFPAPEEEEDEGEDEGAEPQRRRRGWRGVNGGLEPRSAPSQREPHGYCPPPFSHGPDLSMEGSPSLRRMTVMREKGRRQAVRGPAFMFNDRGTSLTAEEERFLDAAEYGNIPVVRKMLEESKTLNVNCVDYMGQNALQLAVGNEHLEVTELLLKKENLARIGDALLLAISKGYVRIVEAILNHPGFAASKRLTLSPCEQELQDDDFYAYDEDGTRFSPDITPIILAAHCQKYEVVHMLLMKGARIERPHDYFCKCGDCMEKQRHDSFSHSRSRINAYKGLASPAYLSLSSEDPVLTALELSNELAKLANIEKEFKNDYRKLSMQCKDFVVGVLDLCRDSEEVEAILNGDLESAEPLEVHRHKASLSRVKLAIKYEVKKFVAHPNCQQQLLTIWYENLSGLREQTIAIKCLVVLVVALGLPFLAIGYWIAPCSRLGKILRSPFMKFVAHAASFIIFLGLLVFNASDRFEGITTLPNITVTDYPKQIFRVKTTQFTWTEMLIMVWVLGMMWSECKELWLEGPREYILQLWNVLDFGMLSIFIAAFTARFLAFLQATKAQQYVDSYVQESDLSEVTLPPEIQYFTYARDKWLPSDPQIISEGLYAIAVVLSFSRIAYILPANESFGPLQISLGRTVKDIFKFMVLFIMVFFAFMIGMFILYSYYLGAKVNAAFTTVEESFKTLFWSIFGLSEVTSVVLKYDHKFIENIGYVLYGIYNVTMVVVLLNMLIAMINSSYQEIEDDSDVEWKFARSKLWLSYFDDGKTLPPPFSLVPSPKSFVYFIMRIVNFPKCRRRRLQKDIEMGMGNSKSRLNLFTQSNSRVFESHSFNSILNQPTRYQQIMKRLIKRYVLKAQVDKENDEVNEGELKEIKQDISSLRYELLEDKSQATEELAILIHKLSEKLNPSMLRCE
Sequence (Q13586 23-685 partner limits assumed): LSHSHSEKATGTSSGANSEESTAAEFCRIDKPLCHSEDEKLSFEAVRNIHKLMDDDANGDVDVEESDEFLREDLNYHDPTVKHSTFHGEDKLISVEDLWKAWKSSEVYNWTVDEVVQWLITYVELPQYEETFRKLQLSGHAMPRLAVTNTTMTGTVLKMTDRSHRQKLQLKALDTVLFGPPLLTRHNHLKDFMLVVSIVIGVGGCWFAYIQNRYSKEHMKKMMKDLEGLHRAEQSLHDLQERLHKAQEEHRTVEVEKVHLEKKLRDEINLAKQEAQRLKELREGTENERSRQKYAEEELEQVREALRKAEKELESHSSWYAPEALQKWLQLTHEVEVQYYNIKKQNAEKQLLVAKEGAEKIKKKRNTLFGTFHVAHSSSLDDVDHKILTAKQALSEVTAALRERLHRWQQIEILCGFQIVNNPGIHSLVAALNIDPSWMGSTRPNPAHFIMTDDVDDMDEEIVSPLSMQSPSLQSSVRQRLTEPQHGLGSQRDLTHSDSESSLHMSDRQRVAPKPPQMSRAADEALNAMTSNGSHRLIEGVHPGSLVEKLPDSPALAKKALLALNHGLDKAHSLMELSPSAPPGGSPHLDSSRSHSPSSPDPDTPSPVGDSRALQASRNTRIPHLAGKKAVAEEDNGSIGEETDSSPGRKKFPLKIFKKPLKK
Sequence (Q96D31 whole entry): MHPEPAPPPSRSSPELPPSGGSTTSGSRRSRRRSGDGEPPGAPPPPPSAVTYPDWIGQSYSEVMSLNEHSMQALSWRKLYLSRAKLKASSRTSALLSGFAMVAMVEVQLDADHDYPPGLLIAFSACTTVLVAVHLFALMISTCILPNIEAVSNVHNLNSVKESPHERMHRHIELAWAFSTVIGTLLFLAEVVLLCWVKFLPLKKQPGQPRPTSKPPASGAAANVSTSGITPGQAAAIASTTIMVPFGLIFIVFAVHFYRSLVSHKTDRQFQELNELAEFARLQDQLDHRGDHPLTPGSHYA

`CC(C)=CCC/C(C)=C/COC(=O)c1cnn(-c2ccc(-n3cc(-c4cccc(C(=O)O)c4)nn3)cc2)c1C(F)(F)F` and `CC(C)CCOC(=O)c1cnn(-c2ccc(-n3cc(-c4cccc(C(=O)O)c4)nn3)cc2)c1C(F)(F)F` cannot be ordered by Activity: greater than 90% for the first, greater than 90% for the second.

`CCOC(=O)c1cnn(-c2ccc(-c3cn(-c4cccc(CO)c4)nn3)cc2)c1C(F)(F)F` and `CCOC(=O)c1cnn(-c2ccc(-c3cn(-c4cccc(C(C)=O)c4)nn3)cc2)c1C(F)(F)F` cannot be ordered by Activity: greater than 90% for the first, greater than 90% for the second.

`CC(C)NC(=O)c1cnn(-c2ccc(-n3cc(-c4cccc(C(=O)O)c4)nn3)cc2)c1C(F)(F)F` and `O=C(O)c1cccc(-c2cn(-c3ccc(-n4ncc(C(=O)O)c4C(F)(F)F)cc3)nn2)c1` cannot be ordered by Activity: greater than 90% for the first, greater than 90% for the second.

`O=C(O)c1cccc(-c2cn(-c3ccc(-n4ncc(C(=O)OCc5ccncc5)c4C(F)(F)F)cc3)nn2)c1` and `NC(=O)c1cnn(-c2ccc(-n3cc(-c4cccc(C(=O)O)c4)nn3)cc2)c1C(F)(F)F` cannot be ordered by Activity: greater than 90% for the first, greater than 90% for the second.

First: O=C(O)c1cccc(-c2cn(-c3ccc(-n4ncc(C(=O)OCCN5CCOCC5)c4C(F)(F)F)cc3)nn2)c1
Second: CCOC(=O)c1cnn(-c2ccc(-n3cc(-c4cccc(C(N)=O)c4)nn3)cc2)c1C(F)(F)F
The Activity of the first is higher: greater than 90% for the first, 72.1% for the second.

`CCOC(=O)c1cnn(-c2ccc(-n3nncc3-c3cccc(C(=O)O)c3)cc2)c1C(F)(F)F` and `CCOC(=O)c1cnn(-c2ccc(-n3cc(-c4cccc(C(=O)OC)c4)nn3)cc2)c1C(F)(F)F` cannot be ordered by Activity: greater than 90% for the first, greater than 90% for the second.

Going from `CCOC(=O)c1cnn(-c2ccc(-n3cc(-c4cccc(C(=O)NS(C)(=O)=O)c4)nn3)cc2)c1C(F)(F)F` to `CCOC(=O)c1cnn(-c2ccc(-n3cc(-c4cccc(S(N)(=O)=O)c4)nn3)cc2)c1C(F)(F)F`, the Activity falls from greater than 90% to 83.6%.

`CCOC(=O)c1cnn(-c2ccc(C(=O)Nc3cccc(C(=O)O)c3)cc2)c1C(F)(F)F` and `O=C(O)c1cccc(-c2cn(-c3ccc(-n4ncc(CO)c4C(F)(F)F)cc3)nn2)c1` cannot be ordered by Activity: greater than 90% for the first, greater than 90% for the second.
